Source: PubChem BioAssay (NCI)
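Dose response: 5 concentrations. Exposure: 48 h. Format: 96-well plates. Endpoint: linear interpolation; highest concentration if not reached. At the GI50, growth is halved. TGI: total growth inhibition.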

Key:
Assay in all cases: NCI anticancer screen, dose series, 48 h
MDA-MB-231 breast = tested on: MDA-MB-231 breast
SK-MEL-28 melanoma = tested on: SK-MEL-28 melanoma
SNB-75 CNS = tested on: SNB-75 CNS
HS 578T breast = tested on: HS 578T breast
SW-620 colon = tested on: SW-620 colon
HL-60(TB) leukemia = tested on: HL-60(TB) leukemia
SF-539 CNS = tested on: SF-539 CNS
RPMI-8226 leukemia = tested on: RPMI-8226 leukemia
SF-268 CNS = tested on: SF-268 CNS
A549 NSCLC = tested on: A549 NSCLC
UACC-62 melanoma = tested on: UACC-62 melanoma
KM12 colon = tested on: KM12 colon
MALME-3M melanoma = tested on: MALME-3M melanoma
EKVX NSCLC = tested on: EKVX NSCLC
NCI-H460 lung = tested on: NCI-H460 lung
UACC-257 melanoma = tested on: UACC-257 melanoma
HCT-15 colon = tested on: HCT-15 colon
K-562 leukemia = tested on: K-562 leukemia
HCC-2998 colon = tested on: HCC-2998 colon
MOLT-4 leukemia = tested on: MOLT-4 leukemia
SK-OV-3 ovarian = tested on: SK-OV-3 ovarian
HCT-116 colon = tested on: HCT-116 colon
ACHN renal = tested on: ACHN renal
CCRF-CEM leukemia = tested on: CCRF-CEM leukemia
M14 melanoma = tested on: M14 melanoma
MCF7 breast = tested on: MCF7 breast
SK-MEL-2 melanoma = tested on: SK-MEL-2 melanoma
T-47D breast = tested on: T-47D breast
SR leukemia = tested on: SR leukemia
SN12C renal = tested on: SN12C renal

`COc1ccc(/C=C/C(=O)c2ccc(N3CCN(C)CC3)cc2)c(C(F)(F)F)c1` gave a GI50 (MDA-MB-231 breast) of 16.8 µM, a TGI (MDA-MB-231 breast) of 30.5 µM and a GI50 (SK-MEL-28 melanoma) of 14.7 µM. The TGI (SK-MEL-28 melanoma) was 27.9 µM, the GI50 (SNB-75 CNS) was 11.7 µM and the TGI (SNB-75 CNS) was 24.5 µM. For the same compound, the GI50 (HS 578T breast) was 14.9 µM, the TGI (HS 578T breast) was 46.5 µM and the GI50 (SW-620 colon) was 11.2 µM. It also gave a TGI (SW-620 colon) of 23.9 µM, a GI50 (HL-60(TB) leukemia) of 4.87 µM and a TGI (HL-60(TB) leukemia) of 24.7 µM. It also gave a GI50 (SF-539 CNS) of 14.2 µM, a TGI (SF-539 CNS) of 27.2 µM and a GI50 (RPMI-8226 leukemia) of 3.4 µM. For the same compound, the TGI (RPMI-8226 leukemia) was 47.7 µM, the GI50 (SF-268 CNS) was 18.9 µM and the TGI (SF-268 CNS) was 41 µM. For the same compound, the GI50 (A549 NSCLC) was 13.2 µM, the TGI (A549 NSCLC) was 30.1 µM and the GI50 (UACC-62 melanoma) was 14.1 µM. The TGI (UACC-62 melanoma) was 27 µM, the GI50 (KM12 colon) was 11 µM and the TGI (KM12 colon) was 24.9 µM. It also gave a GI50 (MALME-3M melanoma) of 12.9 µM, a TGI (MALME-3M melanoma) of 25.6 µM and a GI50 (EKVX NSCLC) of 12.7 µM. It also gave a TGI (EKVX NSCLC) of 25.4 µM, a GI50 (NCI-H460 lung) of 14 µM and a TGI (NCI-H460 lung) of 27.9 µM. It also gave a GI50 (UACC-257 melanoma) of 15.3 µM, a TGI (UACC-257 melanoma) of 30.8 µM and a GI50 (HCT-15 colon) of 4.61 µM. It also gave a TGI (HCT-15 colon) of 16.5 µM, a GI50 (K-562 leukemia) of 2960 nM and a TGI (K-562 leukemia) of 22.1 µM. The GI50 (HCC-2998 colon) was 12 µM, the TGI (HCC-2998 colon) was 24.3 µM and the GI50 (MOLT-4 leukemia) was 9.11 µM. The TGI (MOLT-4 leukemia) was 32.8 µM, the GI50 (SK-OV-3 ovarian) was 16.7 µM and the TGI (SK-OV-3 ovarian) was 33.5 µM. The GI50 (HCT-116 colon) was 5.61 µM, the TGI (HCT-116 colon) was 39 µM and the GI50 (ACHN renal) was 15.1 µM. It also gave a TGI (ACHN renal) of 28.3 µM, a GI50 (CCRF-CEM leukemia) of 7.61 µM and a TGI (CCRF-CEM leukemia) of 53.1 µM. For the same compound, the GI50 (M14 melanoma) was 14.4 µM, the TGI (M14 melanoma) was 34.5 µM and the GI50 (MCF7 breast) was 4.6 µM. For the same compound, the TGI (MCF7 breast) was 19.5 µM, the GI50 (SK-MEL-2 melanoma) was 17.5 µM and the TGI (SK-MEL-2 melanoma) was 32.7 µM. The GI50 (T-47D breast) was 13.7 µM, the TGI (T-47D breast) was 34.6 µM and the GI50 (SR leukemia) was 6.74 µM. It also gave a TGI (SR leukemia) of over 100 µM and a GI50 (SN12C renal) of 13.3 µM.
